Source: US11459586B2, “Methods for increasing efficiency of nuclease-mediated gene editing in stem cells” (President and Fellows of Harvard College, priority 2016, dated 2022)

System: human iPSC
Assay: Jak2 V617F single base pair editing in hiPSC, HR and NHEJ by MiSeq
Format: cell-based
Excerpt: FIGS. 6A-C. Bcl-2 overexpression increases the efficiency of engineering single base pair changes using ssODN donors in human iPSC. FIG. 6A. A sgRNA was designed to target exon 14 of human JAK2. The V617F mutation was encoded within 110 bp ssODN donors (in either the plus or minus orientation) or a plasmid containing 1.9 kb and 1.3 kb flanking homology arms. Small triangles indicate the primer sites for the genotyping PCR reaction outside the ssODN sequence. Plain human iPSC were transfected with 2 μg “Cas9 only sgRNA” or “Cas9 Bcl-2 sgRNA” expression plasmid and/or 10 μM ssODN or 2 μg V617F plasmid donor. 17 days later, cells were harvested for genomic DNA purification. The genomic region around exon 14 was PCR amplified and analyzed by MiSeq. FIG. 6B. […] The percent of MiSeq reads containing the Jak2 V617F mutation (HR) or indel mutations (NHEJ) is indicated together with a plot of bp position along the PCR product versus the number of sequencing reads. […]
A second round of nested PCR with PCR index primers sold under the trademark NEXTERA™ index primers (IIlumina) was used to add barcodes and remaining adaptor sequences. Both PCR reactions were supplemented with fluorescent dye sold under the trademark SYBR® Green (Invitrogen) and monitored on a quantitative PCR machine to prevent over-amplification. […]

## Bcl-2: B cell lymphoma 2 protein, anti-apoptotic, overexpressed from lentivirus or Cas9 plasmid
Oligo (ssODN) donors, Bcl-2 on the Cas9 plasmid
  increase of absolute recombination frequency (HR): 2-4 fold
Plasmid donor, Bcl-2 on the Cas9 plasmid (from 25% without)
  absolute recombination frequency (HR): 39%
